Assay results from PubChem BioAssay (NCI).
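Where inhibition never reached the appropriate level, the endpoint shown equals the highest concentration tested. Otherwise, values were interpolated linearly from a five-concentration, 48-hour dose response in 96-well plates. The concentration for 50% growth inhibition is given as GI50. At the TGI there is no net growth.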

Experiments:
Assay in all cases: NCI tumour cell line growth inhibition, 48 h
[1] = system: LOX IMVI melanoma
[2] = system: SK-MEL-2 melanoma
[3] = system: MDA-MB-435
[4] = system: NCI-H460 lung
[5] = system: HCT-116 colon
[6] = system: MCF7 breast
[7] = system: OVCAR-8 ovarian
[8] = system: DU-145 prostate
[9] = system: IGROV1 ovarian
[10] = system: BT-549 breast

SMILES | TGI [1] [µM] | TGI [2] [µM] | TGI [3] [µM] | TGI [4] [µM] | TGI [5] [µM] | TGI [6] [µM] | TGI [7] [µM] | TGI [8] [µM] | TGI [9] [µM] | TGI [10] [µM] | GI50 [2] [µM] | GI50 [7] [µM] | GI50 [10] [µM] | GI50 [8] [µM] | GI50 [9] [µM] | GI50 [3] [µM] | GI50 [5] [µM]
O=C(/C=C/c1cccs1)c1ccccc1Cl | 32.9 | 43.6 | 25.5 | 40.8 | 25.7 | 18.2 | > 100 | 26.4 | > 65 | – | – | – | – | – | – | – | –
Cc1ccccc1OC(C)C(=O)NN1C(=O)CC(=O)N(c2ccccc2)C1=S (stereo not drawn) | > 100 | > 100 | > 100 | > 100 | > 100 | > 100 | > 100 | > 100 | > 100 | > 100 | – | – | – | – | – | – | –
CC(C)(C)OC(=O)n1cc(C2CN(O)C(=O)C23CCC(=O)N3Cc2ccccc2)c2ccccc21 (stereo not drawn) | 55.3 | 35.7 | > 100 | > 100 | > 100 | > 100 | – | > 100 | 48.5 | – | – | – | – | – | – | – | –
O=C1C=CC(=O)c2c(Cl)ccc(O)c21 | 37.2 | 97.5 | – | > 100 | 23.5 | 31.1 | 50.2 | – | 21 | – | – | – | – | – | – | – | –
COc1ccccc1CNCCCCCCCCCCCCN1C(=O)c2ccc3c4c(ccc(c24)C1=O)C(=O)N(CCCCCCCCCCCCNCc1ccccc1OC)C3=O | – | > 50 | – | – | – | – | 1.94 | > 50 | > 50 | 20.2 | 1.99 | 0.908 | 7.74 | 2.91 | > 50 | – | –
CSc1ccc(/C=C2\N=C(c3ccccc3)N(/N=C/c3cc4cc(C)ccc4nc3Cl)C2=O)cc1 | 44.6 | 43.7 | 26.1 | 57.7 | 33.2 | 43.2 | 42.4 | 36 | 35 | 56.5 | – | – | – | – | – | – | –
CC(=O)/C(=C\c1ccc(Cl)c(Cl)c1)C(=O)C(C)CN(C)C (stereo not drawn) | 6.14 | – | 12.3 | 48.9 | 6.79 | 22.4 | 6.45 | 17.3 | 4.88 | 8.92 | – | – | – | – | – | – | –
NCCOCC(N)C(=O)O (stereo not drawn) | > 100 | > 100 | > 100 | > 100 | > 100 | > 100 | > 100 | > 100 | > 100 | > 100 | – | – | – | – | – | – | –
C/C(Nc1ccc(Cl)cc1Cl)=C1/CCOC1=O | > 100 | – | > 100 | > 100 | > 100 | > 100 | > 100 | > 100 | > 100 | 63.3 | – | – | – | – | – | – | –
NC(=O)CO/N=C1/C(c2c(O)[nH]c3ccccc23)=Nc2ccccc21 | > 100 | > 100 | > 100 | > 100 | > 100 | – | > 100 | > 100 | > 100 | > 100 | – | – | – | – | – | – | –
O=c1cc(NCc2ccncc2)[nH]c(=O)[nH]1 | > 100 | > 100 | > 100 | > 100 | > 100 | > 100 | > 100 | – | > 100 | > 100 | – | – | – | – | – | – | –
C#CCC1(C(=O)OCC)C(=O)c2ccccc2N(C)C1=O (stereo not drawn) | > 100 | > 100 | – | > 100 | – | – | > 100 | – | > 100 | – | – | – | – | – | – | – | –
CC1CC/C(=C\c2ccc(Cl)cc2)c2nc(N)c(C#N)c(-c3ccc(Cl)cc3)c21 (stereo not drawn) | > 100 | > 100 | > 100 | – | > 100 | > 100 | > 100 | – | > 100 | > 100 | – | – | – | – | – | – | –
COc1ccc2nc3n(c2c1)CCc1cc(OC)c(OC)cc1-3 | > 100 | > 100 | > 100 | > 100 | > 100 | > 100 | > 100 | > 100 | – | 99.2 | – | – | – | – | – | – | –
CC(C)(C)C1CC[C@H](O)[C@H]([C@H](O)CC2CC(=O)N(c3ccccc3)C(=O)C2)C1 (stereo partly drawn) | > 100 | – | > 100 | > 100 | > 100 | > 100 | > 100 | > 100 | > 100 | > 100 | – | – | – | – | – | – | –
CC(=O)Nc1cc(Nc2cc(=O)[nH]c(=O)[nH]2)ccc1C | > 100 | – | > 100 | > 100 | > 100 | > 100 | > 100 | > 100 | > 100 | > 100 | – | – | – | – | – | – | –
CC1(C2CCC3(C)OC3C2)CO1 (stereo not drawn) | > 100 | > 100 | – | > 100 | > 100 | – | > 100 | – | > 100 | – | – | – | – | – | – | – | –
CC(=O)O[C@H]1CC[C@@]2(C)[C@H](CC[C@@H]3[C@@H]2CC[C@]2(C)[C@@H](c4ccc(=O)oc4)C[C@H]4O[C@]342)C1 | 7.67 | 6.49 | – | 0.878 | 4.63 | 22.1 | 4.1 | – | 11.3 | – | – | – | – | – | – | – | –
CO[C@]1(CN2CCN3CCCC[C@@H]3C2)/C=C/C[C@H](C)[C@@H](C)S(=O)(=O)NC(=O)c2ccc3c(c2)N(C[C@@H]2CC[C@H]21)C[C@@]1(CCCc2cc(Cl)ccc21)CO3 | – | 0.183 | 2.42 | – | 4.79 | – | – | 6.54 | – | – | 0.0454 | – | – | 2.4 | – | 1.05 | 2.01
C/C(=N\Nc1nc2ccccc2[nH]1)c1cc2ccccc2cn1 | 1.48 | – | 1.1 | 1.45 | 1.04 | 2.31 | 1.24 | 1.91 | 1.13 | 21.2 | – | – | – | – | – | – | –
Cc1cc2c(c(=O)n1C)SCC2 | > 100 | > 100 | > 100 | > 100 | > 100 | – | > 100 | > 100 | > 100 | > 100 | – | – | – | – | – | – | –
CC(=O)CC(=O)CCC(=O)O | > 100 | > 100 | – | > 100 | > 100 | – | > 100 | – | > 100 | – | – | – | – | – | – | – | –
CCN(CC)c1nc(N(C)C)c2ccccc2n1 | > 100 | > 100 | > 100 | > 100 | > 100 | > 100 | > 100 | – | > 100 | > 100 | – | – | – | – | – | – | –
COC(=O)[C@@H]1CN(C(=O)c2ccccc2)C(=O)N1C(=O)OCc1ccccc1 | > 100 | > 100 | > 100 | > 100 | > 100 | > 100 | > 100 | > 100 | > 100 | – | – | – | – | – | – | – | –
